Experimental data from the supplement of paper PMC10307832.

How the values were obtained:
Test in all cases: relative viability (nuclei count vs DMSO), 5 days (fraction); higher = more cells survive
[1] = compound: O=C(/C=C/c1cccnc1)NCCCCC1CCN(C(=O)c2ccccc2)CC1 [Daporinad] + NC(=O)Nc1cc(-c2cccc(F)c2)sc1C(=O)N[C@H]1CCCNC1 [AZD7762] (partner 0.2 µM)
Method in brief: (§1)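 Relative viability equals treated-well nuclei counts divided by vehicle-well nuclei counts. Counts came from 4× images of lung cancer cell lines grown in 1536-well plates for 5 days after pin-tool dosing on the day after seeding. Dosing used one drug alone or a fixed anchor-drug dose plus five library-drug doses (not always all listed) in √10 steps, and values are medians of duplicate plates.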

[2] = compound: COc1cc(Nc2ncc(F)c(Nc3ccc4c(n3)NC(=O)C(C)(C)O4)n2)cc(OC)c1OC [R406] + CC(C)C[C@H](NC(=O)[C@H](Cc1ccccc1)NC(=O)c1cnccn1)B(O)O [Bortezomib] (partner 0.002 µM)
Method in brief: as §1

[3] = compound: O=C(/C=C/c1cccnc1)NCCCCC1CCN(C(=O)c2ccccc2)CC1 [Daporinad] + N=C(N)NC(=N)NCCc1ccccc1 [Phenformin] (partner 250 µM)
Method in brief: as §1

[4] = compound: COc1cc(Nc2ncc(F)c(Nc3ccc4c(n3)NC(=O)C(C)(C)O4)n2)cc(OC)c1OC [R406] + O=C(CCCCCCC(=O)Nc1ccccc1)NO [Vorinostat] (partner 1 µM)
Method in brief: as §1

| Cell Line | relative viability ([1]; first compound 0.0005 µM) | relative viability ([1]; first compound 0.001581 µM) | relative viability ([1]; first compound 0.005 µM) | relative viability ([1]; first compound 0.01581 µM) | relative viability ([2]; first compound 0.08 µM) | relative viability ([2]; first compound 0.253 µM) | relative viability ([2]; first compound 0.8 µM) | relative viability ([2]; first compound 8 µM) | relative viability ([3]; first compound 0.0005 µM) | relative viability ([3]; first compound 0.001581 µM) | relative viability ([3]; first compound 0.005 µM) | relative viability ([3]; first compound 0.01581 µM) | relative viability ([4]; first compound 0.08 µM) | relative viability ([4]; first compound 0.253 µM) | relative viability ([4]; first compound 0.8 µM) | relative viability ([4]; first compound 2.53 µM) | relative viability ([4]; first compound 8 µM) | relative viability ([2]; first compound 2.53 µM) |
| --- | --- | --- | --- | --- | --- | --- | --- | --- | --- | --- | --- | --- | --- | --- | --- | --- | --- | --- |
| HCC-15 | 1.16 | 1.33 | 1.26 | 1.15 | 1.02 | 1.16 | 1.25 | 0.962 | 0.421 | 0.617 | 0.567 | 0.586 | 0.919 | 0.921 | 0.867 | 0.842 | 0.81 | – |
| EKVX | 0.586 | 0.676 | 0.933 | 0.705 | 1.01 | 1.17 | 1.45 | 0.6 | 0.212 | 0.23 | 0.251 | 0.227 | 0.78 | 0.567 | 0.757 | 0.6 | 0.653 | 0.994 |
| NCI-H2087 | 1.21 | 1.41 | 1.37 | 1.17 | 0.815 | 1.02 | 0.847 | 0.751 | 0.405 | 0.601 | 0.535 | 0.496 | 0.43 | 0.741 | 0.885 | 0.646 | 0.954 | 0.428 |
| NCI-H1437 | 1.12 | 1.16 | 1.14 | 1.09 | 0.392 | 0.768 | 0.675 | 0.226 | 0.349 | 0.325 | 0.349 | 0.362 | 0.901 | 0.983 | 0.84 | 0.835 | 0.602 | 0.259 |
| ABC-1 | 0.83 | 0.798 | 0.823 | 1.1 | 0.399 | 0.321 | 0.317 | 0.265 | 0.257 | 0.244 | 0.285 | 0.285 | 1.33 | 1.37 | 1.35 | 1.11 | 0.765 | 0.251 |
| PC-14 | 0.22 | 0.363 | 0.362 | 0.45 | 0.874 | 0.957 | 0.909 | 0.704 | 0.357 | 0.633 | 0.488 | 0.4 | 0.71 | 0.84 | 0.975 | 0.523 | 0.451 | 0.604 |
| A-427 | 0.83 | 0.765 | 0.759 | 0.529 | 0.948 | 1.01 | 1.03 | 0.74 | 0.298 | 0.356 | 0.295 | 0.191 | 0.856 | 0.928 | 0.852 | 0.939 | 0.621 | 0.526 |
| LCLC-97TM1 | 0.209 | 0.274 | 0.238 | 0.195 | 0.718 | 0.659 | 0.793 | 0.207 | 0.414 | 0.454 | 0.485 | 0.458 | 0.732 | 0.908 | 1.38 | 0.569 | 0.468 | 0.489 |
| LCLC-103H | 0.829 | 0.829 | 0.773 | 0.851 | 0.972 | 1.29 | 1.08 | 0.9 | 0.351 | 0.341 | 0.358 | 0.327 | 0.729 | 0.764 | 0.834 | 0.779 | 0.566 | 0.781 |
| RERF-LC-KJ | – | 1.2 | 1.14 | 1.11 | 1.15 | 1.23 | 1.26 | 1.01 | 0.376 | 0.443 | 0.537 | 0.477 | 0.669 | 0.811 | 0.732 | 0.583 | 0.552 | 0.932 |
| BEN | 0.779 | 0.661 | 0.812 | 0.824 | 0.685 | 1.03 | 1.02 | 0.553 | 0.289 | 0.237 | 0.261 | 0.292 | 0.606 | 0.601 | 0.607 | 0.555 | 0.542 | 0.88 |
| NCI-H1666 | 0.773 | 0.874 | 0.941 | 0.851 | 0.803 | 1.03 | 0.853 | 0.617 | 0.586 | 0.563 | 0.602 | 0.562 | 1.02 | 1.09 | 1.05 | 1.1 | 1.03 | 0.336 |
| LC-2-ad | 0.762 | 0.88 | 0.79 | 0.964 | 0.973 | 1.09 | 0.987 | 0.133 | 0.568 | 0.707 | 0.605 | 0.677 | 0.677 | 0.748 | 0.744 | 0.336 | 0.201 | 0.111 |
| ChaGo-K-1 | 0.834 | 0.903 | 0.755 | 0.3 | 1.02 | 1.06 | 1.11 | 0.347 | 0.513 | 0.532 | 0.434 | 0.274 | 0.755 | 0.839 | 0.822 | 0.609 | 0.637 | 0.823 |
| NCI-H1975 | 0.61 | 0.752 | 0.729 | 0.747 | 0.444 | 0.39 | 0.401 | 0.178 | 0.435 | 0.404 | 0.457 | 0.401 | 0.722 | 0.775 | 0.73 | 0.414 | 0.213 | 0.162 |
| NCI-H1993 | 0.645 | 0.774 | 0.787 | 0.962 | 1.04 | 1.12 | 1.11 | 0.6 | 0.536 | 0.553 | 0.535 | 0.578 | 0.892 | 1.03 | 0.963 | 0.433 | 0.447 | 0.544 |
| NCI-H23 | 0.273 | 0.181 | 0.274 | 0.203 | 0.953 | 1.45 | 1.35 | 0.278 | 0.726 | 0.773 | 0.829 | 0.399 | 0.605 | 0.635 | 0.734 | 0.155 | 0.216 | 0.906 |
| HCC-366 | 0.255 | – | 0.247 | 0.268 | 1.08 | 1.02 | 1.3 | 0.428 | 0.565 | 0.584 | 0.633 | 0.606 | 0.264 | 0.482 | 0.332 | 0.137 | 0.077 | – |
| EMC-BAC-2 | 1.09 | 1.28 | 1.02 | 0.413 | 1.04 | 1.13 | 1.12 | 0.844 | 0.57 | 0.631 | 0.417 | 0.298 | 0.405 | 0.785 | 0.53 | 0.411 | 0.145 | 1.04 |
| NCI-H2405 | 0.786 | 0.856 | 0.792 | 0.357 | 1.01 | 1.11 | 1.05 | 0.845 | 0.43 | 0.459 | 0.484 | 0.366 | 1 | 1.39 | 1.14 | 0.624 | 0.245 | 0.941 |
| EPLC-272H | 0.19 | 0.271 | 0.268 | 0.297 | 0.813 | 0.983 | 0.984 | 0.495 | 0.265 | 0.299 | 0.373 | 0.368 | 0.29 | 0.444 | 0.511 | 0.286 | 0.168 | 0.51 |
| NCI-H1915 | 0.667 | 0.742 | 0.716 | 0.71 | 0.963 | 1.01 | 0.985 | 0.898 | 0.328 | 0.398 | 0.362 | 0.365 | 0.506 | 0.631 | 0.546 | 0.403 | 0.369 | 0.79 |
| NCI-H647 | 0.428 | 0.749 | 0.573 | 0.514 | 0.89 | 1.02 | 1.59 | 0.188 | 0.534 | 0.65 | 0.641 | 0.643 | 0.436 | 0.645 | 0.611 | 0.66 | 0.113 | 0.0846 |
| NCI-H322M | 0.579 | 0.592 | 0.54 | 0.456 | 1.19 | 0.994 | 1.19 | 0.803 | 0.793 | 0.726 | 0.686 | 0.436 | 0.816 | 0.873 | 0.864 | 0.633 | 0.468 | 0.534 |
| NCI-H650 | 0.931 | 0.775 | 1.32 | 1.06 | 0.712 | 0.852 | 0.977 | 0.389 | 0.45 | 0.422 | 0.522 | 0.507 | 0.494 | 0.442 | 0.495 | 0.439 | 0.331 | 0.625 |
| NCI-H2085 | 0.879 | – | 1.03 | 1.1 | 0.996 | 1.14 | 1.1 | 0.775 | 0.816 | 0.855 | 0.796 | 0.816 | 0.749 | 0.8 | 0.847 | 0.691 | 0.561 | 0.708 |
| NCI-H838 | 1.02 | 1.02 | 0.894 | 0.837 | 0.709 | 1.46 | 1.01 | 0.153 | 0.551 | 0.799 | 0.542 | 0.415 | 0.694 | 0.795 | 0.769 | 0.458 | 0.194 | 0.11 |
| NCI-H460 | 0.646 | 0.587 | 0.64 | 0.629 | 0.96 | 1.33 | 1.58 | 0.486 | 0.472 | 0.575 | 0.533 | 0.523 | 0.673 | 1.04 | 0.917 | 0.645 | 0.742 | – |
| LOU-NH91 | 0.761 | 0.803 | 0.905 | 0.816 | 0.427 | 0.4 | 0.469 | 0.471 | 0.645 | 0.727 | 0.798 | 1.02 | 0.926 | 0.993 | 0.914 | 0.53 | 0.498 | 0.496 |
| NCI-H3122 | 0.978 | 1.05 | 1.09 | 0.825 | 0.97 | 0.972 | 1.03 | 0.947 | 0.36 | 0.391 | 0.387 | 0.333 | 0.884 | 1.1 | 1.03 | 0.923 | 0.928 | 1.01 |
